Test results from ChEMBL document CHEMBL3351989, “Structure-activity relationship and interaction studies of new SIRT1 inhibitors with the scaffold of 3-(furan-2-yl)-[1,2,4]triazolo[3,4-b][1,3,4]thiadiazole” (Bioorg Med Chem Lett, 2014).

Key:
[1] = biological target: T1, NAD-dependent protein deacetylase sirtuin-1 (Homo sapiens, UniProt Q96EB6); assay: Inhibition of hexa-His-tagged recombinant human SIRT1 expressed in Escherichia coli BL21(DE3) using AMC-labeled Arg-His-Lys-Lys(ac) as substrate assessed as inhibition of deacetylation of peptide after 45 mins by fluorescence assay
T1 sequence (Q96EB6 whole entry): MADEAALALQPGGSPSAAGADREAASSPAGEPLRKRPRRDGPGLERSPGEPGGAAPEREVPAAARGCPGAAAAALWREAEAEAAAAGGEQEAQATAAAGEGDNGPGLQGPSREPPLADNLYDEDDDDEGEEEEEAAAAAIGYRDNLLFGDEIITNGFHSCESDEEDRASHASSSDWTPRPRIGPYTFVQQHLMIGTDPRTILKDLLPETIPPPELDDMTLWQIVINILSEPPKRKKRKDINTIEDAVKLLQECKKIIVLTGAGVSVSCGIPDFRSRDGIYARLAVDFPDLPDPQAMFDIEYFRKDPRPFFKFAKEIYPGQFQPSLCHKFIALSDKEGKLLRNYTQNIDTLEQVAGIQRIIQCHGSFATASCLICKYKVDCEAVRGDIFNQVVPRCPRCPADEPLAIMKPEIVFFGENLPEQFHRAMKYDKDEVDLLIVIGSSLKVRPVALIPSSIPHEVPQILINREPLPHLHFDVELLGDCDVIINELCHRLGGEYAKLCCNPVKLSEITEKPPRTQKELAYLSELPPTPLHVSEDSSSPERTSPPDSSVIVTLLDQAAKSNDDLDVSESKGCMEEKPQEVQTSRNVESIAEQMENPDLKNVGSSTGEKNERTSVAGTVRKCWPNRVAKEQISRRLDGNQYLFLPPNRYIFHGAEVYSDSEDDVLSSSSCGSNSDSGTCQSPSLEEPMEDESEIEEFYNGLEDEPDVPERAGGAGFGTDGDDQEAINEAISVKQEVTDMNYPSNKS

[2] = biological target: T2, NAD-dependent protein deacetylase sirtuin-1 (Homo sapiens) (UniProt Q96EB6); assay: Inhibition of SIRT1-mediated deacetylation of p53 in human MCF7 cells at 1.2 to 100 uM after 6 hrs by Western blotting; type: cell-based
T2 sequence (whole entry): T1 sequence (Q96EB6 whole entry)

[3] = biological target: T1, NAD-dependent protein deacetylase sirtuin-1; assay: Inhibition of hexa-His-tagged recombinant human SIRT1 expressed in Escherichia coli BL21(DE3) using AMC-labeled Arg-His-Lys-Lys(ac) as substrate assessed as inhibition of deacetylation of peptide after 45 mins by Lineweaver-Burke plot method
[4] = biological target: T3, NAD-dependent protein deacetylase sirtuin-1 (Homo sapiens, UniProt Q96EB6, F273L); assay: Inhibition of human SIRT1 F273L mutant expressed in Escherichia coli BL21(DE3) using AMC-labeled Arg-His-Lys-Lys(ac) as substrate assessed as inhibition of deacetylation of peptide after 45 mins by Lineweaver-Burke plot method
T3 sequence (Q96EB6 2-747 F273L limits assumed): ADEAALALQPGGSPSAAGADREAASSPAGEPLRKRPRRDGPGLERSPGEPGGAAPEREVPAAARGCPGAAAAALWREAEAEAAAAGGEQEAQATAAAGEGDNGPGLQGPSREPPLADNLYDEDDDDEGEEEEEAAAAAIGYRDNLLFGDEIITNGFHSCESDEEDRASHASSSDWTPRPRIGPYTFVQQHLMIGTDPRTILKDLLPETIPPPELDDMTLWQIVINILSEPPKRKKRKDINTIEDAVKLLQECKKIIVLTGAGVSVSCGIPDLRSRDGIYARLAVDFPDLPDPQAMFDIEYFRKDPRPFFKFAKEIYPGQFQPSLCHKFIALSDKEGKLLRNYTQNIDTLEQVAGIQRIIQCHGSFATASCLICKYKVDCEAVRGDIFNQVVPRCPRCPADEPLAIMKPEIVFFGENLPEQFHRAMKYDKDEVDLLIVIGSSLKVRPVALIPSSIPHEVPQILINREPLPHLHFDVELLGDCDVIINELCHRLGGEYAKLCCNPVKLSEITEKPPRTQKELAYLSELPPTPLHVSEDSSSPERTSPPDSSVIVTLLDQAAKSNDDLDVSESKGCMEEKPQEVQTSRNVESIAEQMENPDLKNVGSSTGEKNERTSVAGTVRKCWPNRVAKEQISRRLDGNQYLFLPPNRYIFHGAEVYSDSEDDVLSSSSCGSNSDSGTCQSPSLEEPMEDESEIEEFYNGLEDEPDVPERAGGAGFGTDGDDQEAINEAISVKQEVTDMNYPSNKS

[5] = biological target: T3, NAD-dependent protein deacetylase sirtuin-1; assay: Inhibition of human SIRT1 F273L mutant expressed in Escherichia coli BL21(DE3) using AMC-labeled Arg-His-Lys-Lys(ac) as substrate assessed as inhibition of deacetylation of peptide after 45 mins by fluorescence assay
[6] = biological target: T4, NAD-dependent protein deacetylase sirtuin-1 (Homo sapiens, UniProt Q96EB6, I347A); assay: Inhibition of human SIRT1 I347A mutant expressed in Escherichia coli BL21(DE3) using AMC-labeled Arg-His-Lys-Lys(ac) as substrate assessed as inhibition of deacetylation of peptide after 45 mins by fluorescence assay
T4 sequence (Q96EB6 2-747 I347A limits assumed): as the sequence (Q96EB6 2-747 F273L limits assumed) above, with L272F, I346A counted along it

[7] = biological target: T4, NAD-dependent protein deacetylase sirtuin-1; assay: Inhibition of human SIRT1 I347A mutant expressed in Escherichia coli BL21(DE3) using AMC-labeled Arg-His-Lys-Lys(ac) as substrate assessed as inhibition of deacetylation of peptide after 45 mins by Lineweaver-Burke plot method
[8] = biological target: T5, NAD-dependent protein deacetylase sirtuin-1 (Homo sapiens, UniProt Q96EB6, F414A); assay: Inhibition of human SIRT1 F414A mutant expressed in Escherichia coli BL21(DE3) using AMC-labeled Arg-His-Lys-Lys(ac) as substrate assessed as inhibition of deacetylation of peptide after 45 mins by fluorescence assay
T5 sequence (Q96EB6 2-747 F414A limits assumed): as the sequence (Q96EB6 2-747 F273L limits assumed) above, with L272F, F413A counted along it

[9] = biological target: T5, NAD-dependent protein deacetylase sirtuin-1; assay: Inhibition of human SIRT1 F414A mutant expressed in Escherichia coli BL21(DE3) using AMC-labeled Arg-His-Lys-Lys(ac) as substrate assessed as inhibition of deacetylation of peptide after 45 mins by Lineweaver-Burke plot method

SMILES	IC50 [1] [µM]	also measured
Cc1cccc(OCc2nn3c(-c4ccco4)nnc3s2)c1	75.3	
c1coc(-c2nnc3sc(-c4ccc5c(c4)OCO5)nn23)c1	45.2	
COc1cccc(-c2nn3c(-c4ccco4)nnc3s2)c1	20.3	
COc1cccc(OCc2nn3c(-c4ccco4)nnc3s2)c1	48.4	
Cc1ccc(-c2nn3c(-c4ccco4)nnc3s2)cc1	27.4	
COc1ccc(Cc2nn3c(-c4ccco4)nnc3s2)cc1OC	4.1	inhibition [2]: Dose-dependent effect
CC(Oc1ccccc1)c1nn2c(-c3ccco3)nnc2s1 (stereo not drawn)	67.9	
Fc1ccc(-c2ccc(-c3nn4c(-c5ccco5)nnc4s3)o2)cc1	> 100	
c1coc(-c2nnc3sc(-c4cc5ccccc5o4)nn23)c1	20.6	
Cc1ccc(OCc2nn3c(-c4ccco4)nnc3s2)cc1C	28.7	
c1coc(-c2nn3c(-c4ccco4)nnc3s2)c1	22	
COc1ccc(-c2nn3c(-c4ccco4)nnc3s2)cc1	46.7	
c1coc(-c2nnc3sc(-c4ccncc4)nn23)c1	49.8	
c1ccc(CCCc2nn3c(-c4ccco4)nnc3s2)cc1	12.2	
CCC(Oc1ccccc1)c1nn2c(-c3ccco3)nnc2s1 (stereo not drawn)	> 100	
c1ccc(CCc2nn3c(-c4ccco4)nnc3s2)cc1	47.4	
C=CCOc1ccc(-c2nn3c(-c4ccco4)nnc3s2)cc1	29.5	
COc1ccc(Cc2nn3c(-c4ccco4)nnc3s2)cc1	76.9	
COc1ccccc1OCc1nn2c(-c3ccco3)nnc2s1	51.2	
Cc1ccc(OCc2nn3c(-c4ccco4)nnc3s2)cc1	29.3	
CCOc1cc(-c2nn3c(-c4ccco4)nnc3s2)cc(OCC)c1OCC	65.7	
CCOc1cccc(-c2nn3c(-c4ccco4)nnc3s2)c1	19	

SMILES	IC50 [1] [µM]	also measured
CCOc1ccccc1-c1nn2c(-c3ccco3)nnc2s1	23.6	
C=CCOc1cccc(-c2nn3c(-c4ccco4)nnc3s2)c1	18.8	
Clc1ccc(Cc2nn3c(-c4ccco4)nnc3s2)cc1	78	
c1ccc(-c2nn3c(-c4ccco4)nnc3s2)cc1	27.6	
Cc1ccccc1OCc1nn2c(-c3ccco3)nnc2s1	18.7	
COc1ccc(-c2nn3c(-c4ccco4)nnc3s2)cc1OC	24.8	
CCC(c1ccccc1)c1nn2c(-c3ccco3)nnc2s1 (stereo not drawn)	96.2	
COc1cc(-c2nn3c(-c4ccco4)nnc3s2)cc(OC)c1OC	35.6	
c1ccc(-c2nn3c(-c4ccco4)nnc3s2)nc1	3.5	Ki [3]: 0.6 µM; inhibition [2]: Dose-dependent effect; Ki [4]: 58.9 µM; IC50 [5]: 133 µM; IC50 [6]: 87.9 µM; Ki [7]: 39.1 µM; IC50 [8]: 44 µM; Ki [9]: 24.1 µM
COc1ccc(OCc2nn3c(-c4ccco4)nnc3s2)cc1	41	
CCOc1ccc(-c2nn3c(-c4ccco4)nnc3s2)cc1	31.3	
c1coc(-c2nnc3sc(-c4cnccn4)nn23)c1	66.6	
c1coc(-c2nnc3sc(C4COc5ccccc5O4)nn23)c1 (stereo not drawn)	8.9	inhibition [2]: Dose-dependent effect
CCOc1ccccc1OCc1nn2c(-c3ccco3)nnc2s1	13.7	
c1cncc(-c2nn3c(-c4ccco4)nnc3s2)c1	78.8	
c1ccc(OCc2nn3c(-c4ccco4)nnc3s2)cc1	61.3	
c1coc(-c2nnc3sc(Cc4ccc5c(c4)OCCO5)nn23)c1	67	
c1coc(-c2nnc3sc(-c4ccc5c(c4)OCCO5)nn23)c1	40.7	
Cc1cccc(-c2nn3c(-c4ccco4)nnc3s2)c1	7.5	
c1ccc(Cc2nn3c(-c4ccco4)nnc3s2)cc1	37.9	
c1coc(-c2nnc3sc(-c4cccs4)nn23)c1	88.6	
